These results are taken from paper PMC11555231 (Nature Communications, 2024).

Molecules are shown by their SMILES. Where two headings read alike, the source gives them in different places. Bridge positions count the residues as written; N and C are the ends. Square brackets hold non-standard residues; d marks the D form. Peptide text beside a SMILES is read from it.

In experiment [1] the test system is human neutrophils. Briefly: Time-lapse imaging and NET quantification (NETosis). The experiment is classed as cell-based. As to the method:
(§1) Peripheral venous blood was isolated from consenting healthy adult volunteers in heparin tubes as previously described. Briefly, blood samples were on Histopaque 1119 (Sigma-Aldrich) and then centrifuged for 20 min at 800 × g. The plasma was collected and centrifuged for a second time for 20 min at 800 × g. The neutrophil layer was collected and washed in Hyclone Hank’s Balanced Salt Solution (HBSS) -Ca, -Mg, -Phenol red (GE Healthcare) supplemented with 10 mM HEPES (Invitrogen) 0.1% FBS and further purified with a discontinuous Percoll (GE Healthcare) gradient consisting of layers with densities of 85, 80, 75, 70 and 65% and centrifuged for 20 min at 800 × g. Neutrophil-enriched layers were then collected and washed, and neutrophil purity was assessed using flow cytometry.
About 5 × 10^4 human neutrophils were seeded in a black 96-well plate (PerkinElmer) in HyClone HBSS +Ca, +Mg, - Phenol red (GE Healthcare) containing 10 mM HEPES (Invitrogen). Cells were pre-incubated with the corresponding peptide for 60 min prior to the start of the experiment. DNA of live cells was stained with 4 µg/mL Hoechst (membrane permeable; Thermo Scientific) and DNA from dead cells with 0.2 µM Sytox-green (membrane impermeable; Invitrogen). Cells were stimulated with 100 nM PMA, 5 µM Ca-Ionophore or 0.1 mg/mL cholesterol crystals at the start of the microscope acquisition. Plates stimulated with cholesterol crystals were centrifuged at 300×g for 5 min at RT immediately prior to microscope acquisition. The cells were imaged on an inverted Nikon wide-field microscope system at 37 °C and CO2 (5%). Four fields of view were acquired per well every 15 mins for 10–15 h using a 40x objective. NETs were differentiated from necrotic cells by the size of the sytox signal using FIJI[86]. […] [85]. Area measurements were distributed into bins of increasing area sizes and plotted as a percentage of the total number of Sytox-green positive (dead) cells.

The test system of experiment [2] is human neutrophils. Briefly: Ca-ionophore stimulated neutrophils, citrullinated H3 immunostaining and confocal microscopy / immunoblot. In kind it is cell-based. Conditions: sheet Figure_3G, Ca-I + peptide. As to the method: as §1
About 5 × 10^4 sorted neutrophils were seeded in 24-well cell culture plates containing glass coverslips in HyClone HBSS +Ca, +Mg, - Phenol red (GE Healthcare) supplemented with 10 mM HEPES (Invitrogen). Neutrophils were stimulated with 5 µM Ca-Ionophore (Sigma) and fixed for 20 min at room temperature with 2% paraformaldehyde at RT. Cells were then washed and permeabilized with 0.5% Triton X-100 in PBS. Non-specific binding was blocked with 2% BSA (Sigma) and 2% donkey serum (Sigma) in PBS. Samples were stained with DAPI (Life Technologies), the rabbit anti-CitH3 (Abcam; ab5103 1:500) and donkey anti-rabbit alexa488 (Invitrogen; A21206). Fluorescence imaging was performed on a Leica TCS SP8 inverted confocal microscope using sequential scan in between frames mode with a 20x objective.
Neutrophil samples were boiled in a sodium dodecyl sulphate (SDS) buffer containing dithiothreitol (DTT) and run on a polyacrylamide gel electrophoresis (SDS-PAGE) using Criterion TGX precast gels (Any-KD; Bio-Rad Laboratories). Proteins were then transferred to a PVDF membrane (Bio-Rad Laboratories) via semi-dry transfer. The membrane was blocked with 5% BSA (Fisher Scientific) in Tris-buffered saline with 0.1% Tween-20 (TBS-T). Levels of citrullinated histone H3, total H3 and myeloperoxidase (MPO) were assessed by incubating membranes in either anti-histone H3 citrulline R2 + R8 + R17 (Abcam; ab5103 1:1000), anti-histone H3 (Millipore; 07-690 1:10000) or anti-MPO (DAKO; A0398 1:2500) overnight at 4 °C, respectively. For cell lysate-based assays and pull-down assays, membranes were incubated as above with anti-hPADI4 (Abcam; ab50332; 1:1000 in 5% BSA/TBS-T), anti-Bcr (Cell Signalling #3902S; 1:1000 in 3% milk/TBS-T) and anti-Impdh2 (Cell Signalling #57068S; 1:1000 in 3% milk/TBS-T). Membranes were washed in 0.1% TBS-T and subsequently incubated with goat anti-rabbit HRP or anti-goat (Fisher Scientific) for 1 h, followed by final washes in 0.1% TBS-T. Membranes were imaged with enhanced chemiluminescent substrate (ECL) (Thermo Fisher) on a Bio-Rad imager.
A general note: In western blotting, separated proteins are transferred to a membrane and probed.

The next experiment has as its target T1, hPADI4 (Homo sapiens, UniProt Q9UM07).
T1 construct: PADI4 (residues 1–663); Avi-Tag (unbiotinylated); made in house; host or cells: E. coli BL21(DE3) without BirA
Briefly: COLDER assay, inhibition of PADI4 at 10 mM CaCl2 (substrate BAEE). The experiment is classed as biochemical. Conditions: COLDER inhibition assay; mean of the 3 experiments printed beside it (stdev in a separate column); read-out: IC50. The protocol:
PADI4 activity was assessed using the COLDER assay[43] that measures the formation of urea-containing compounds (e.g. citrulline). The reaction was carried out in a 96-well plate with a final volume of 50 µl. His-PADI4 (50 nM) was incubated with different concentrations of peptides (100 µM to 0.3 nM) in the presence of CaCl2 (from 10 mM to 0.001 mM as specified) for 10 min. The reaction was started by the addition of 10 mM N^α-Benzoyl-L-arginine ethyl ester hydrochloride (BAEE, Merck). After 30 min, the reaction was quenched with EDTA (50 mM final concentration). For colour development, 200 µl of COLDER solution, consisting of 1 volume of solution A (80 mM diacetyl monoxime/2,3-butanedione monoxime (Merck) and 2 mM thiosemicarbazide (Acros Organics)) and 3 volumes of solution B (3 M H3PO4, 6 M H2SO4 and 2 mM NH4Fe(SO4)2) were added to each well and the mixture was heated at 95 °C for 15 min. After cooling to RT, absorbance at 540 nm was measured, and citrulline concentration was determined using a standard curve of citrulline standards. All studies were performed within the linear range of PADI4 activity, and data analysis was performed using Prism GraphPad (Dotmatics). Data are presented as the average ± standard error of the mean from at least two independent replicates.

In the next experiment the target is T2, Bio-hPADI4 wt (Homo sapiens, UniProt Q9UM07).
T2 construct: PADI4 (residues 1–663); Avi-Tag (biotinylated by BirA); made in house; host or cells: E. coli BL21-DE3 co-expressing BirA
T2 sequence (Q9UM07 whole entry, the tested form may be a part): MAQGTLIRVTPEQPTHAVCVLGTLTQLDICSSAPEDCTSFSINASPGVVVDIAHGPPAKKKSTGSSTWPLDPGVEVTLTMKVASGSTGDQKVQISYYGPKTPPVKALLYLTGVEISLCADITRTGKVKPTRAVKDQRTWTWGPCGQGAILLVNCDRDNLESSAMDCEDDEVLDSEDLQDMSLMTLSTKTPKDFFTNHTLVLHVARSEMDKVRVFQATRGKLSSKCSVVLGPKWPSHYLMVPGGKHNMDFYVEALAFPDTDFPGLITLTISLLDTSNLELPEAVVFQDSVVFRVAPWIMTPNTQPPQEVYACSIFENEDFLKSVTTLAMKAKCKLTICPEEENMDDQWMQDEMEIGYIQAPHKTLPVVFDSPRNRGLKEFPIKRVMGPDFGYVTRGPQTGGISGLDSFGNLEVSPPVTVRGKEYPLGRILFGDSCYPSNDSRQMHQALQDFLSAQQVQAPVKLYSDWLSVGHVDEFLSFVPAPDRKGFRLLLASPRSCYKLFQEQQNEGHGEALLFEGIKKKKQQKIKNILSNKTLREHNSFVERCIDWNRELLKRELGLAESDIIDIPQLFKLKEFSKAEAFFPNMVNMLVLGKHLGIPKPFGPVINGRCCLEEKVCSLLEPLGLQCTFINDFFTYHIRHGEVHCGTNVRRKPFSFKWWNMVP
Briefly: Surface plasmon resonance (SPR), single cycle kinetics, peptide binding to immobilised PADI4. A general note: SPR reads the build-up and loss of mass on a sensor chip optically.

The mark [3] stands for this setting: DNA area (μm) 1500, replicate 1.
Where [4] appears, read: DNA area (μm) 1500, replicate 2.
Setting [5] is: DNA area (μm) 1500, replicate 4.

T1 sequence (Q9UM07 whole entry, the tested form may be a part): as above
Procedure for Bio-hPADI4 wt: Single cycle kinetics analysis by SPR was carried out using a Biacore T200 or S200 and a Biotin CAPture kit, series S (Cytiva). […] 50 mM HEPES (pH 7.5), 150 mM NaCl, 2 mM DTT, 0.05 % Tween-20, 0.1% DMSO and variable CaCl2 (as specified) was used as the running buffer and experiments performed at 25 °C.
Samples were run with 120 s contact time, and variable dissociation time (often 360 s). Data were analysed using the Biacore T200 analysis software; data was fitted to a 1:1 binding model accounting for baseline drift where necessary. Data are presented as the average ± standard deviation of at least two independent replicates.

`N=C(N)NCCC[C@@H]1NC(=O)[C@H](Cc2ccc(O)cc2)NC(=O)[C@H](Cc2c[nH]cn2)NC(=O)[C@H](Cc2c[nH]cn2)NC(=O)[C@H](CC(=O)O)NC(=O)[C@H](CCCNC(=N)N)NC(=O)[C@@H](Cc2ccc(O)cc2)NC(=O)CSC[C@@H](C(=O)NCC(N)=O)NC(=O)[C@H](Cc2ccc(O)cc2)NC(=O)[C@H](CCCCN)NC(=O)[C@@H]2CCCN2C(=O)[C@H](Cc2c[nH]cn2)NC1=O` [PAD4-3] ({CH2CO}-[dY]RDHHYRHPKYCG-NH2; thioether N-12): the “share per DNA area bin” value with human neutrophils [1] (DNA area (μm) 150, replicate 1) was 61.7647; in the experiment on human neutrophils [1] (DNA area (μm) 150, replicate 2), 57.1429; in the experiment on human neutrophils [1] (DNA area (μm) 150, replicate 3), 62.8571; in the experiment with human neutrophils [1] (DNA area (μm) 150, replicate 4) it was 54.7619; in the experiment on human neutrophils [1] (DNA area (μm) 250, replicate 1), 14.7059; in the experiment with human neutrophils [1] (DNA area (μm) 250, replicate 2), 5.7143. For the same molecule, the “share per DNA area bin” value in the experiment with human neutrophils [1] (DNA area (μm) 250, replicate 3) was found to be 5.7143; in the experiment on human neutrophils [1] (DNA area (μm) 250, replicate 4), 21.4286; in the experiment with human neutrophils [1] (DNA area (μm) 750, replicate 1), 23.5294; with human neutrophils [1] (DNA area (μm) 750, replicate 2), 37.1429; in the experiment on human neutrophils [1] (DNA area (μm) 750, replicate 3), 31.4286; in the experiment with human neutrophils [1] (DNA area (μm) 750, replicate 4) it was 23.8095. In addition, the “share per DNA area bin” value with human neutrophils [1] (setting [3]) is on record as 0; in the experiment on human neutrophils [1] (setting [4]), 0; in the experiment with human neutrophils [1] (DNA area (μm) 1500, replicate 3), 0; with human neutrophils [1] (setting [5]), 0.
For the molecule `N=C(N)NCCC[C@@H]1NC(=O)[C@H](CC(=O)O)NC(=O)[C@@H](Cc2ccc(O)cc2)NC(=O)CSC[C@@H](C(=O)NCC(N)=O)NC(=O)[C@H](Cc2ccc(O)cc2)NC(=O)[C@H](CCCCN)NC(=O)[C@@H]2CCCN2C(=O)[C@H](Cc2c[nH]cn2)NC(=O)[C@H](CCCNC(=N)N)NC(=O)[C@H](Cc2ccc(O)cc2)NC(=O)[C@H](Cc2c[nH]cn2)NC(=O)[C@H](Cc2c[nH]cn2)NC1=O` [PAD4-3inv] ({CH2CO}-[dY]DRHHYRHPKYCG-NH2; thioether N-12), the “share per DNA area bin” value amounted to 64 in the experiment on human neutrophils [1] (DNA area (μm) 150, replicate 1); 52.1739 in the experiment with human neutrophils [1] (DNA area (μm) 150, replicate 2); 52.1739 in the experiment on human neutrophils [1] (DNA area (μm) 150, replicate 3); 45.1613 in the experiment with human neutrophils [1] (DNA area (μm) 150, replicate 4); 20 in the experiment on human neutrophils [1] (DNA area (μm) 250, replicate 1); 0 in the experiment with human neutrophils [1] (DNA area (μm) 250, replicate 2). Further, the “share per DNA area bin” value worked out at 17.3913 with human neutrophils [1] (DNA area (μm) 250, replicate 3); 22.5806 in the experiment on human neutrophils [1] (DNA area (μm) 250, replicate 4); 16 with human neutrophils [1] (DNA area (μm) 750, replicate 1); 47.8261 with human neutrophils [1] (DNA area (μm) 750, replicate 2); 30.4348 with human neutrophils [1] (DNA area (μm) 750, replicate 3); 29.0323 with human neutrophils [1] (DNA area (μm) 750, replicate 4). The figures for the “share per DNA area bin” value in the experiment on human neutrophils [1] (setting [3]), in the experiment on human neutrophils [1] (setting [4]) and with human neutrophils [1] (setting [5]) were 0, 0 and 3.2258, respectively.
Regarding `N=C(N)NCCC[C@@H]1NC(=O)[C@H](CC(=O)O)NC(=O)[C@@H](Cc2ccc(O)cc2)NC(=O)CSC[C@@H](C(=O)NCC(N)=O)NC(=O)[C@H](Cc2ccc(O)cc2)NC(=O)[C@H](CCCCN)NC(=O)[C@@H]2CCCN2C(=O)[C@H](Cc2c[nH]cn2)NC(=O)[C@H](CCCNC(=N)N)NC(=O)[C@H](Cc2ccc(O)cc2)NC(=O)[C@H](Cc2c[nH]cn2)NC(=O)[C@H](Cc2c[nH]cn2)NC1=O` [PADI4-3i] ({CH2CO}-[dY]DRHHYRHPKYCG-NH2; thioether N-12), the “Figure 3G quantification in Ca-I stimulated neutrophils (citrullinated H3 immunostaining)” value in the experiment with human neutrophils [2] (replicate 1 (first data row)) was determined as 33.3333; in the experiment with human neutrophils [2] (replicate 2 (second data row)), 50; in the experiment on human neutrophils [2] (replicate 3 (third data row)), 41.6667; in the experiment on human neutrophils [2] (replicate 4 (fourth data row)) it was 50.
As usually defined, the IC50 is the concentration needed to halve the response being measured. Consider `N=C(N)NCCC[C@@H]1NC(=O)[C@@H](Cc2ccc(O)cc2)NC(=O)CSC[C@@H](C(=O)NCC(N)=O)NC(=O)[C@H](Cc2ccc(O)cc2)NC(=O)[C@H](CCCCN)NC(=O)[C@@H]2CCCN2C(=O)[C@H](Cc2c[nH]cn2)NC(=O)[C@H](Cc2c[nH]c3ccccc23)NC(=O)[C@H](Cc2ccc(O)cc2)NC(=O)[C@H](Cc2c[nH]cn2)NC(=O)[C@H](Cc2c[nH]cn2)NC(=O)[C@H](CC(=O)O)NC1=O` [PADI4_3.20] ({CH2CO}-[dY]RDHHYWHPKYCG-NH2; thioether N-12), for which the half-maximal inhibitory concentration (IC50) at hPADI4 was 0.0791 µM.
A word on the Kd: it is the free concentration of one partner at which half of the binding sites on the other are occupied at equilibrium, for simple one-to-one binding. As for `CC[C@H](C)[C@@H]1NC(=O)[C@H](CC(C)C)NC(=O)[C@H](Cc2c[nH]c3ccccc23)NC(=O)[C@@H]2CCCN2C(=O)[C@H]([C@@H](C)O)NC(=O)[C@H](C)NC(=O)[C@@H](Cc2ccc(O)cc2)NC(=O)CSC[C@@H](C(=O)NCC(N)=O)NC(=O)[C@H](CC(C)C)NC(=O)[C@H](C(C)C)NC(=O)[C@H](C(C)C)NC1=O` [PADI4_5] ({CH2CO}-[dY]ATPWLIVVLCG-NH2; thioether N-11), the dissociation constant (Kd) on Bio-hPADI4 wt (0 mM CaCl2, 25 °C, read-out: KD 0 mM CaCl2, bound printed in µM) is more than 2 µM; on Bio-hPADI4 wt (10 mM CaCl2, PADI4 active site blocked with Cl-amidine, 25 °C, read-out: KD 10 mM CaCl2 + Cl-amidine, bound given in µM), more than 2 µM; on Bio-hPADI4 wt (10 mM CaCl2 in running buffer, 25 °C, read-out: KD 10 mM CaCl2, bound printed in µM) it was more than 2 µM.
As to `CC(C)C[C@H](NC(=O)[C@H](CCC(N)=O)NC(=O)[C@H](CC(C)C)NC(=O)[C@@H](NC(=O)[C@H](C)NC(=O)[C@H](CCCNC(=N)N)NC(=O)[C@H](Cc1ccc(O)cc1)NC(=O)[C@H](CCCNC(=N)N)NC(=O)[C@@H]1CSCC(=O)N[C@@H](Cc2ccc(O)cc2)C(=O)N[C@@H](CCC(=O)O)C(=O)N[C@@H](CO)C(=O)N1)C(C)C)C(N)=O` [Q8A] ({CH2CO}-YESCRYRAVLQL-NH2; thioether N-4), the Kd on Bio-hPADI4 wt (Fig. 5D, mean ± SEM of three independent repeats, read-out: KD (µM) of PADI4_11 analogues) is 0.5 ± 0.3 µM.
